Drawing on ChEMBL document CHEMBL1123070, “Conformational properties of central nervous system active thyrotropin releasing hormone analogues: probing structure-activity relationships at the molecular level” (1985), this text covers Relative activity for six compounds.

The species named for this assay is Mus musculus. Briefly: Relative CNS activity against reserpine hypothermia in mice relatived to TRH. Type of assay: functional, Central nervous system.
`NC(=O)[C@H]1CCCN1C(=O)[C@H](Cc1c[nH]cn1)NC(=O)c1nc(O)nc(O)c1Br`: the Relative activity worked out at 0.7. Then `CCc1c(O)nc(O)nc1C(=O)N[C@@H](Cc1c[nH]cn1)C(=O)N1CCC[C@@H]1C(N)=O`, with 0.09; and `CC1SCC(C(=O)N[C@@H](Cc2c[nH]cn2)C(=O)N2CCC[C@@H]2C(N)=O)NC1=O` (stereo partly specified), with 83. Then `CCCc1c(O)nc(O)nc1C(=O)N[C@@H](Cc1c[nH]cn1)C(=O)N1CCC[C@@H]1C(N)=O`, with 0.8. In the case of `C[C@@H]1SCC(C(=O)N[C@@H](Cc2c[nH]cn2)C(=O)N2CCC[C@@H]2C(N)=O)NC1=O` (stereo partly specified) it was 17.

`NC(=O)[C@@H]1CCCN1C(=O)[C@@H](Cc1c[nH]cn1)NC(=O)[C@@H]1CSC(=O)N1` had a Relative activity of 0.8.
